Results reported in paper PMC7041978 (The Journal of Veterinary Medical Science, 2020).
Entries after “also recorded” stand apart in the source; their conditions may differ.

How the values were obtained:
[1] = system: human foreskin fibroblasts (HFF); experiment: Host cell cytotoxicity assay; type: cell-based; conditions: for Host cell inhibition (%): 10 µM compounds, HFF cells, 48 hr; for IC50: Homo sapiens, HFF, 48 h, read-out: IC50 for host cell
[2] = system: Toxoplasma gondii RH-2F strain; experiment: Parasite growth assay; type: cell-based; conditions: for IC50 / inhibition at 10 µM: Toxoplasma gondii, 48 h; for IC50: read-out: IC50 for parasite growth; for inhibition at 10 µM: HFF, read-out: Parasite inhibition (%)
Toxoplasma gondii = conditions: cited from earlier work
[3] = system: Toxoplasma gondii RH-2F intracellular tachyzoites; experiment: Intracellular parasite growth assay; type: cell-based; conditions: added after 2-hr invasion, 48 hr

Compound | Host cell inhibition (%) [1] [%] | IC50 [1] [µM] | IC50 [2] [µM] | inhibition at 10 µM [2] [%] | Inhibition of intracellular parasite growth ([3]; 10 µM) | also measured
CC(C)=CC[C@H](O)C1=CC(=O)c2c(O)ccc(O)c2C1=O [Alkannin] | −0.3 | 5.4 | 1.3 | 86.9 | – | Host cell inhibition (%) ([1]; listed as alkannin): did not kill the host cells
Nc1ccc(S(=O)(=O)Nc2ncccn2)cc1 [sulphadiazine] | – | – | – | – | – | Selectivity indexes (SI) (Toxoplasma gondii): 0.29
c1c2c(cc3c1OCO3)-c1cc3ccc4c(c3c[n+]1CC2)OCO4 [Coptisine Chloride] | 6.4 | > 50 | 2.1 | 73.3 | – | Host cell inhibition (%) ([1]; listed as coptisine chloride): did not kill the host cells; Dose dependence of parasite growth inhibition ([2]; high concentrations, data not shown): did not inhibit parasite growth in a dose-dependent manner
CCc1nc(N)nc(N)c1-c1ccc(Cl)cc1 [Pyrimethamine, reference compound] | – | – | – | – | inhibited the intracellular growth | Selectivity indexes (SI) (Toxoplasma gondii): 0.21
COc1ccc2cc3[n+](cc2c1OC)CCc1cc2c(cc1-3)OCO2 [Berberine Chloride] | −3.0 | 2.8 | 2.2 | 85.5 | – | Host cell inhibition (%) ([1]; listed as berberine chloride): did not kill the host cells
O=c1cc(-c2ccc(O)c(O)c2)oc2cc(O)cc(O)c12 [Luteolin] | – | > 50 | 5.7 | 74.3 | effectively inhibited the intracellular parasite growth | –
O=c1cc(-c2ccccc2)oc2cc(O)c(O)c(O)c12 [Baicalein] | 3.3 | > 50 | 5 | 80.1 | effectively inhibited the intracellular parasite growth | Host cell inhibition (%) ([1]; listed as baicalein): did not kill the host cells; Inhibition of intracellular parasite growth ([3]; 10 µM, listed as baicalein): effectively inhibited intracellular parasite growth
CC(C)=CC[C@@H](O)C1=CC(=O)c2c(O)ccc(O)c2C1=O [Shikonin] | 43.4 | 17.8 | 1.4 | 87.3 | – | Host cell inhibition (%) ([1]; listed as shikonin): did not kill the host cells; also recorded: killed some of the host cells
dextran sulfate [reference compound] | – | – | – | – | – | Inhibition of intracellular parasite growth ([3]; 25 mg/ml): hardly affected the intracellular parasites
C[C@H]1CC[C@@]2(OC1)O[C@H]1C[C@H]3[C@@H]4CC[C@@H]5C[C@@H](O[C@@H]6O[C@H](CO)[C@H](O)[C@H](O)[C@H]6O[C@@H]6O[C@H](CO)[C@@H](O)[C@H](O)[C@H]6O)CC[C@]5(C)[C@H]4CC[C@]3(C)[C@H]1[C@@H]2C [Timosaponin A-III] | 98.3 | – | – | 81.4 | – | Host cell inhibition (%) ([1]; listed as timosaponin A-III): killed almost all of the host cells
